In ChEMBL document CHEMBL1201862, “PubChem BioAssay data set” (2004):
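Values below derive from 48-hour exposures of cells grown in 96-well plates, with endpoints linearly interpolated between the two concentrations bracketing the appropriate inhibition level. Abbreviation: GI50, concentration required for 50% inhibition of growth.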 Activity calls are given as the source filed them. No stated cut-off is given here; in the data, active = GI50 up to about 1.1 µM and inactive = higher.

Tests used:
Test in all cases: DTP human tumour cell line panel, 48 h
T47D = tested on: T47D
HOP-62 = tested on: HOP-62
A498 = tested on: A498
K562 = tested on: K562
SK-MEL-5 = tested on: SK-MEL-5
M14 = tested on: M14
SR = tested on: SR
PC-3 = tested on: PC-3
IGROV-1 = tested on: IGROV-1
Malme-3M = tested on: Malme-3M
MDA-MB-435 = tested on: MDA-MB-435
SK-MEL-2 = tested on: SK-MEL-2
HOP-92 = tested on: HOP-92
OVCAR-5 = tested on: OVCAR-5
RPMI-8226 = tested on: RPMI-8226
OVCAR-4 = tested on: OVCAR-4
COLO 205 = tested on: COLO 205
UACC-257 = tested on: UACC-257
TK-10 = tested on: TK-10
U-251 = tested on: U-251
SN12C = tested on: SN12C
OVCAR-8 = tested on: OVCAR-8
OVCAR-3 = tested on: OVCAR-3
CCRF-CEM = tested on: CCRF-CEM
SF-539 = tested on: SF-539
NCI-H23 = tested on: NCI-H23
MCF7 = tested on: MCF7
HCT-116 = tested on: HCT-116
786-0 = tested on: 786-0
SF-295 = tested on: SF-295
RXF 393 = tested on: RXF 393
LOX IMVI = tested on: LOX IMVI
HL-60 = tested on: HL-60
EKVX = tested on: EKVX
HCC 2998 = tested on: HCC 2998
ACHN = tested on: ACHN
Hs-578T = tested on: Hs-578T
HT-29 = tested on: HT-29
MDA-MB-231 = tested on: MDA-MB-231
UACC-62 = tested on: UACC-62
KM12 = tested on: KM12
SK-OV-3 = tested on: SK-OV-3
A549 = tested on: A549
UO-31 = tested on: UO-31
MOLT-4 = tested on: MOLT-4
NCI/ADR-RES = tested on: NCI/ADR-RES
NCI-H226 = tested on: NCI-H226
HCT-15 = tested on: HCT-15
MDA-N = tested on: MDA-N
NCI-H522 = tested on: NCI-H522
SK-MEL-28 = tested on: SK-MEL-28
SNB-19 = tested on: SNB-19
SF-268 = tested on: SF-268
DU-145 = tested on: DU-145
SNB-75 = tested on: SNB-75
SW-620 = tested on: SW-620
CAKI-1 = tested on: CAKI-1
NCI-H460 = tested on: NCI-H460

CC(=O)c1c2c(cc3c1CC1(C3)Cc3cc4c(c(C(C)=O)c3C1)CCCC4)CCCC2
GI50 (T47D): 62.2 µM (inactive)
GI50 (HOP-62): > 100 µM (inactive)
GI50 (A498): > 100 µM (inactive)
GI50 (K562): 20.1 µM (inactive)
GI50 (SK-MEL-5): 17.4 µM (inactive)
GI50 (M14): > 100 µM (inactive)
GI50 (SR): 16.3 µM (inactive)
GI50 (PC-3): 21.4 µM (inactive)
GI50 (IGROV-1): > 100 µM (inactive)
GI50 (Malme-3M): > 100 µM (inactive)
GI50 (MDA-MB-435): 57.7 µM (inactive)
GI50 (SK-MEL-2): 19.7 µM (inactive)
GI50 (HOP-92): 81.8 µM (inactive)
GI50 (OVCAR-5): > 100 µM (inactive)
GI50 (RPMI-8226): 21.3 µM (inactive)
GI50 (OVCAR-4): 53.2 µM (inactive)
GI50 (COLO 205): > 100 µM (inactive)
GI50 (UACC-257): 25.1 µM (inactive)
GI50 (TK-10): > 100 µM (inactive)
GI50 (U-251): > 100 µM (inactive)
GI50 (SN12C): > 100 µM (inactive)
GI50 (OVCAR-8): > 100 µM (inactive)
GI50 (OVCAR-3): 41.6 µM (inactive)
GI50 (CCRF-CEM): 7.19 µM (inactive)
GI50 (SF-539): > 100 µM (inactive)
GI50 (NCI-H23): > 100 µM (inactive)
GI50 (MCF7): 56.2 µM (inactive)
GI50 (HCT-116): 55.8 µM (inactive)
GI50 (786-0): 45.6 µM (inactive)
GI50 (SF-295): > 100 µM (inactive)
GI50 (RXF 393): > 100 µM (inactive)
GI50 (LOX IMVI): > 100 µM (inactive)
GI50 (HL-60): 15.8 µM (inactive)
GI50 (EKVX): > 100 µM (inactive)
GI50 (HCC 2998): > 100 µM (inactive)
GI50 (ACHN): 27.9 µM (inactive)
GI50 (Hs-578T): > 100 µM (inactive)
GI50 (HT-29): 63.2 µM (inactive)
GI50 (MDA-MB-231): > 100 µM (inactive)
GI50 (UACC-62): > 100 µM (inactive)
GI50 (KM12): 28.7 µM (inactive)
GI50 (SK-OV-3): > 100 µM (inactive)
GI50 (A549): > 100 µM (inactive)
GI50 (UO-31): 0.104 µM (active)
GI50 (MOLT-4): 18.4 µM (inactive)
GI50 (NCI/ADR-RES): > 100 µM (inactive)
GI50 (NCI-H226): > 100 µM (inactive)
GI50 (HCT-15): 51.5 µM
GI50 (MDA-N): 38.4 µM (inactive)
GI50 (NCI-H522): 74.6 µM (inactive)

CC(O)(C#N)CC(O)(C(F)(F)Cl)C(F)(F)Cl (centres undefined)
GI50 (A498): > 10 µM (inactive)
GI50 (SK-MEL-5): > 10 µM (inactive)
GI50 (M14): > 10 µM (inactive)
GI50 (PC-3): > 10 µM (inactive)
GI50 (IGROV-1): > 10 µM (inactive)
GI50 (SK-MEL-28): > 10 µM (inactive)
GI50 (MDA-MB-435): > 10 µM (inactive)
GI50 (SNB-19): > 10 µM (inactive)
GI50 (HOP-92): > 10 µM (inactive)
GI50 (OVCAR-5): > 10 µM (inactive)
GI50 (OVCAR-4): > 10 µM (inactive)
GI50 (COLO 205): > 10 µM (inactive)
GI50 (SF-268): > 10 µM (inactive)
GI50 (DU-145): > 10 µM (inactive)
GI50 (SNB-75): > 10 µM (inactive)
GI50 (TK-10): > 10 µM (inactive)
GI50 (U-251): > 10 µM (inactive)
GI50 (SN12C): > 10 µM (inactive)
GI50 (OVCAR-8): > 10 µM (inactive)
GI50 (SW-620): > 10 µM (inactive)
GI50 (OVCAR-3): > 10 µM (inactive)
GI50 (SF-539): > 10 µM (inactive)
GI50 (NCI-H23): > 10 µM (inactive)
GI50 (CAKI-1): > 10 µM (inactive)
GI50 (HCT-116): > 10 µM (inactive)
GI50 (SF-295): > 10 µM (inactive)
GI50 (RXF 393): > 10 µM (inactive)
GI50 (EKVX): > 10 µM (inactive)
GI50 (ACHN): > 10 µM (inactive)
GI50 (HT-29): > 10 µM (inactive)
GI50 (MDA-MB-231): > 10 µM (inactive)
GI50 (KM12): > 10 µM (inactive)
GI50 (A549): > 10 µM (inactive)
GI50 (UO-31): > 10 µM (inactive)
GI50 (NCI/ADR-RES): > 10 µM (inactive)
GI50 (NCI-H226): > 10 µM (inactive)
GI50 (HCT-15): > 10 µM
GI50 (MDA-N): > 10 µM (inactive)

CC(C)[C@]12O[C@H]1[C@@H]1O[C@]13[C@]1(O[C@H]1C[C@H]1C4=C(CC[C@@]13C)C(=O)OC4)[C@@H]2O [TRIPTOLIDE]
GI50 (HOP-62): 0.00701 µM (active)
GI50 (A498): 0.018 µM (active)
GI50 (K562): 0.017 µM (active)
GI50 (SK-MEL-5): 0.00697 µM (active)
GI50 (M14): < 0.0136 µM (active)
GI50 (SR): 0.0173 µM (active)
GI50 (PC-3): 0.0181 µM (active)
GI50 (IGROV-1): 0.00713 µM (active)
GI50 (SK-MEL-28): 0.00637 µM (active)
GI50 (Malme-3M): 0.0112 µM (active)
GI50 (MDA-MB-435): 0.00693 µM (active)
GI50 (SNB-19): 0.104 µM (active)
GI50 (SK-MEL-2): 0.00643 µM (active)
GI50 (HOP-92): 0.023 µM (active)
GI50 (OVCAR-4): 0.00792 µM (active)
GI50 (COLO 205): 0.00776 µM (active)
GI50 (NCI-H460): 0.00527 µM (active)
GI50 (SF-268): 0.0249 µM (active)
GI50 (DU-145): 0.0244 µM (active)
GI50 (SNB-75): 0.0101 µM (active)
GI50 (TK-10): < 0.014 µM (active)
GI50 (U-251): 0.061 µM (active)
GI50 (SN12C): 0.00861 µM (active)
GI50 (OVCAR-8): 0.0203 µM (active)
GI50 (SW-620): 0.0141 µM (active)
GI50 (OVCAR-3): 0.00586 µM (active)
GI50 (CCRF-CEM): 0.011 µM (active)
GI50 (SF-539): 0.00745 µM (active)
GI50 (NCI-H23): 0.00322 µM (active)
GI50 (MCF7): 0.00427 µM (active)
GI50 (HCT-116): 0.00258 µM (active)
GI50 (786-0): 0.0169 µM (active)
GI50 (SF-295): 0.0279 µM (active)
GI50 (LOX IMVI): 0.00514 µM (active)
GI50 (HL-60): 0.00667 µM (active)
GI50 (EKVX): 0.021 µM (active)
GI50 (HCC 2998): 0.0183 µM (active)
GI50 (ACHN): 0.00679 µM (active)
GI50 (Hs-578T): 0.015 µM (active)
GI50 (HT-29): 0.0083 µM (active)
GI50 (MDA-MB-231): 0.0145 µM (active)
GI50 (UACC-62): 0.00421 µM (active)
GI50 (KM12): 0.0274 µM (active)
GI50 (SK-OV-3): 0.0474 µM (active)
GI50 (UO-31): 0.0124 µM (active)
GI50 (MOLT-4): 0.00764 µM (active)
GI50 (NCI/ADR-RES): 0.0261 µM (active)
GI50 (NCI-H226): 0.0216 µM (active)
GI50 (HCT-15): 0.014 µM
GI50 (MDA-N): 0.00759 µM (active)
GI50 (NCI-H522): 0.00881 µM (active)
